Where no end group is shown, it is not given here.
How the values were obtained:
membrane bound c35 = assay: Protection by soluble c35 / 29mer against death signalling from membrane-bound c35; assay type: cell-based; conditions: for protection against membrane-linked, expressed c35: FIG. 7, microinjection of sptc35, peptide 30 minutes later
Experimental: FIG. 7 is a graphical representation showing protection of membrane-bound killing-domain by a soluble 35 amino acid peptide and a soluble 29 amino acid peptide. The cells were subjected to microinjection of sptc35 or GFP followed 30 minutes later by either peptide c35 or the 29mer peptide.

p75^NTR-mediated death = assay: Modulation of p75NTR-induced killing of microinjected DRG neurons by co-expressed proteins, antisense or caspase inhibitors; assay type: cell-based, mouse; conditions: for p75^NTR-mediated (induced) neural death: neurons over-expressing p75^NTR, in LIF, agent present or co-expressed
Source text: The inventors hypothesised that the free cytoplasmic expressed 35 amino acid domain might be able to interfere with death signalling from full length p75^NTR proteins by a dominant-negative mechanism, and attempted to inhibit the death by co-expressing the proteins. Given the results presented below regarding the ability of overexpression of Bcl-2 to enhance p75^NTR killing, this paradigm was used to test the ability of the c35 protein to inhibit death signalling.
As the inventors had shown that the death of dorsal root ganglia (DRG) sensory neurons in vitro and in vivo, was, at least in part, mediated by p75^NTR, p75^NTR was over-expressed in these cells by microinjecting rat p75^NTR cDNA expressing plasmid into the nucleus of mouse sensory neurons. These were cultured in the presence of the LIF to prevent neural death not linked to p75^NTR mechanisms. […] The injected neurons were observed over a 48 hour period and the viability was assessed. […] This was expected since the cytoplasmic tail contains a sequence with homology to the Fas/TNFR “death domain” [9].
The Bcl-2 family of proteins is involved in mediating apoptotic signalling pathways, and can homodimerise or heterodimerise with other family members. Bcl-2 and Bcl-xL are well characterised inhibitors of stress-induced apoptosis, JNK activation and neural death due to growth-factor limitation. However, both are poor inhibitors of Fas and TNFR mediated opoptosis. As it had been shown previously that high levels of Bcl-2 or Bcl-xL blocked neural cell death in a variety of models, the inventors examined whether over-expression of these proteins could block the death induced by p75^NTR.
The inventors tested, therefore, whether high endogenous Bcl-2 levels might be necessary for successful p75^NTR-mediated killing in normal neurons by assaying p75^NTR killing in Bcl-2 depleted cells. Endogenous Bcl-2 was down regulated by antisense as previously described.
To investigate whether the p75^NTR-Bcl-2 death-signalling cascade was dependent on caspase activation, inhibitors of caspases were employed.

neurons = assay: Neural death after growth factor withdrawal with Bcl-2 over-expression; assay type: cell-based, mouse
Source text: Thus, at the same expression levels in the same neural population, Bcl-2 was able to prevent or enhance neural cell death depending on the nature of the death signal.

[1] = tested on: dorsal root ganglia (DRG) sensory neurons; assay: Microinjection of plasmid expression constructs into DRG neurons cultured in LIF; survival of injected neurons; assay type: cell-based, mouse; conditions: microinjected DRG neurons cultured in LIF
Experimental: In order to investigate how p75^NTR signals neural death, the inventors devised a robust in vitro assay for p75^NTR induced death. Plasmid expression constructs were microinjected into individual neurons in the presence of the growth factor LIF, and the survival of the neurons expressing the different plasmids was determined. A series of plasmid constructs which encode incomplete p75^NTR proteins were made (see FIG. 1) and the ability of each protein to signal death when over expressed was assessed.
To further investigate the domain required for death signalling the inventors made constructs expressing p75^NTR proteins deleted for the extracellular domain or the extracellular and transmembrane domains. Proteins without extracellular domains retain the signal peptide which is responsible for correctly transporting the protein into the cell membrane. Proteins without transmembrane domains are expressed free in the cytoplasm of the cell and are epitope tagged with a FLAG motif for detection.
As the inventors had shown that the death of dorsal root ganglia (DRG) sensory neurons in vitro and in vivo, was, at least in part, mediated by p75^NTR, p75^NTR was over-expressed in these cells by microinjecting rat p75^NTR cDNA expressing plasmid into the nucleus of mouse sensory neurons. […] The injected neurons were observed over a 48 hour period and the viability was assessed. […]

Schwann cells = assay: Protection of Schwann cells against NGF-induced death; assay type: cell-based; conditions: expressed from a genetic construct
cells = assay: Cell death mediated by palmitoylated (membrane-linked) peptides; assay type: cell-based; conditions: FIG. 8
Experimental: FIG. 8 is a graphical representation showing that peptide 29 which has a palmitoyl group at the membrane (amino) end and which facilitates association with the membrane mediates to cell death. […] F, Fluoro tagged; pen, penetratin.
Cells were treated with 2 μM peptide for 1-2 hours then washed. pen, penetratin, F29, 29 mer; Palm, palmitoylation. • ? pen F29 • ? pen F29 Palm • ? pen gp130 Palm • ? pen
The palmitoylation links the peptide to the plasma membrane. This membrane-linked 29mer leads to cell death whereas its soluble form protects cells against p75^NTR-mediated death signalling.
Cells were washed with peptide (2 μM) for approximately 110 minutes and the cells were then washed. Controls included penetratin-fused 29 mer, palmitoylated penetratin-fused 29 mer palmitoylated penetratin-fused gp130 and penetratin alone.

29mer: truncated form of the 35mer; six amino acids deleted from the C-terminal end (SEQ ID NO:12) (KRWNSCKQNKQGANSRPVNQTPPPEGEKL; listed as Rattus norvegicus)
protection against membrane-linked, expressed c35 (membrane bound c35): also protected against membrane-bound c35

Bcl-2 W188A protein: Bcl-2 protein with inactivating point mutation W188A in the BH2 domain
p75^NTR-mediated (induced) neural death (p75^NTR-mediated death): protected neurons from any p75^NTR-induced death

Bcl-2: over-expressed wildtype Bcl-2 protein
neural death induced by NGF withdrawal (neurons): able to protect against neural death induced by NGF withdrawal | neural death / survival after expression of the construct alone [1]: had no effect on cell survival | p75^NTR-mediated (induced) neural death (p75^NTR-mediated death): induced a significant increase in neural death

G145E: Bcl-2 protein with inactivating point mutation G145E in the BH1 domain
p75^NTR-mediated (induced) neural death (p75^NTR-mediated death): enhanced killing effect seen with Bcl-2 coexpression was abrogated

c35 protein: free cytoplasmic 35 amino acid p75NTR domain expressed from a plasmid, not membrane associated, FLAG tagged (KRWNSCKQNKQGANSRPVNQTPPPEGEKLHSDSGI; also: FLAG tagged, end not given here; listed as Rattus norvegicus)
neural death / survival after expression of the construct alone [1]: ability of the domain to induce death is removed | protection of Schwann cells against NGF-induced death (Schwann cells): protected Schwann cells against NGF-induced death | killing induced by co-expression of p75^NTR and Bcl-2 (p75^NTR-mediated death; co-expression in DRG neurons (FIG. 5)): able to inhibit this killing | protection against membrane bound c35 (membrane bound c35; expressed in soluble form): can also protect cells against membrane bound c35

soluble c35: 35 amino acid domain of p75NTR juxtaposed to the membrane, in soluble form (SEQ ID NO:8) (KRWNSCKQNKQGANSRPVNQTPPPEGEKLHSDSGI; listed as Rattus norvegicus)
cell death / protection (cells): tends to protect the cells | protection from death signalling by membrane bound c35 (membrane bound c35; FIG. 6): protects cells from death signalling in a dose-dependent manner | protection against membrane-linked, expressed c35 (membrane bound c35): can also protect against membrane-linked, expressed c35

z-VAD [reference compound]
p75^NTR-mediated (induced) neural death (p75^NTR-mediated death): significantly reduced
